In test [1] the target is BTK enzyme (recombinant full-length BTK, hBTK) (Homo sapiens (Human), UniProt Q06187). Description: BTK enzymatic activity LANCE TR-FRET assay. Type of test: biochemical. The settings on record: 50 pM hBTK, 25 μM ATP, 2 μM biotin-A5-peptide; compound range 1 μM to 0.017 nM; read-out: BTK binding IC50. A general note: Time-resolved FRET reads energy transfer from a long-lived donor to a nearby acceptor.

For test [2], the system named is adenosine uptake into HeLa cells. Description: [3H]Adenosine uptake assay in HeLa cells. Type of test: cell-based. The settings on record: [3H]adenosine accumulation in HeLa cells, compound range 10 μM to 0.032 nM, read-out: ADU inhibition IC50. In a few lines:
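IC50 came from a 4-parameter fit of counts per second over a ten-point, 1:3 titration (final 10 µM down to […]). Compound was applied 30 min at ambient temperature in HBSS/5% FBS before a 500 nM [3H]adenosine solution was added; uptake ran 60 min, read by Cytostar-T proximity scintillation.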

Like-named read-outs stand apart in the source and are kept apart here.

BTK enzyme (recombinant full-length BTK, hBTK), sequence (Q06187 whole entry): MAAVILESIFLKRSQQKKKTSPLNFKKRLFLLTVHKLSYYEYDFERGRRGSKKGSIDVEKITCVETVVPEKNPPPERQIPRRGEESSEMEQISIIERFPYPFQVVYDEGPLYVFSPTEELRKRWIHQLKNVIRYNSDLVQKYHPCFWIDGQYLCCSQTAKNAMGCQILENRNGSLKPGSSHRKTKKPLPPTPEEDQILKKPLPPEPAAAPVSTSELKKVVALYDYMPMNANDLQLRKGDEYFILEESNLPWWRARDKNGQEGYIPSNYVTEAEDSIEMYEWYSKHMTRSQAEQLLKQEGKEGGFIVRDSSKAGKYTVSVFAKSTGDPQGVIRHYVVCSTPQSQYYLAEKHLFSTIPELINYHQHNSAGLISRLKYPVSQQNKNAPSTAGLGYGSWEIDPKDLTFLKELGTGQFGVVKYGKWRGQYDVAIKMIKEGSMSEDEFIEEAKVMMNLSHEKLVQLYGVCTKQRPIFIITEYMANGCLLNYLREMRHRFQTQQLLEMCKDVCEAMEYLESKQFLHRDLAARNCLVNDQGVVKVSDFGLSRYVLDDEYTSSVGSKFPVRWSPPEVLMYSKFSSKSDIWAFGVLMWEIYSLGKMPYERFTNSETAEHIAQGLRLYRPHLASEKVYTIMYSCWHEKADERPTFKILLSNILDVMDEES

Turning to `CC(O)(c1ccc(-c2nc([C@@H]3CC[C@H]4CCC(=O)N4C3)n3ccnc(N)c23)cc1)C1CC2CCC1CC2` (stereo partly drawn) [Example 150, (6R,8aS)-6-{8-amino-1-[4-(1-bicyclo[2.2.2]oct-2-yl-1-hydroxyethyl)phenyl]imidazo[1,5-a]pyrazin-3-yl}hexahydroindolizin-3(2H)-one], the IC50 (in general, the concentration that inhibits the measured activity by half) was 1.6 nM in test [1] and 2410 nM in test [2].

`CC(O)(c1ccc(-c2nc([C@@H]3CC[C@H]4CCC(=O)N4C3)n3ccnc(N)c23)cc1)c1cc(C(F)(F)F)ccc1F` (stereo partly drawn) [Example 151, (6R,8aS)-6-[8-amino-1-(4-{1-[2-fluoro-5-(trifluoromethyl)pheny]-1-hydroxyethyl}phenyl)imidazo[1,5-a]pyrazin-3-yl]hexahydroindolizin-3(2H)-one]: the IC50 was determined as 12.1 nM in test [1] and 2040 nM in test [2].

Turning to `C[C@@](O)(c1ccc(-c2nc([C@@H]3CC[C@H]4CCC(=O)N4C3)n3ccnc(N)c23)cc1)c1cccc(-n2ccnc2)c1` [Example 152, (6R,8aS)-6-[8-amino-1-(4-{(1R)-1-hydroxy-1-[3-(1H-imidazol-1-yl)phenyl]ethyl}phenyl)imidazo[1,5-a]pyrazin-3-yl]hexahydroindolizin-3(2H)-one], the IC50 turned out to be 39.1 nM in test [1] and 2960 nM in test [2] (Homo sapiens, HeLa).

Consider `C[C@](O)(c1ccc(-c2nc([C@@H]3CC[C@H]4CCC(=O)N4C3)n3ccnc(N)c23)cc1)c1cccc(-n2ccnc2)c1` [Example 153, (6R,8aS)-6-[8-amino-1-(4-{(1S)-1-hydroxy-1-[3-(1H-imidazol-1-yl)phenyl]ethyl}phenyl)imidazo[1,5-a]pyrazin-3-yl]hexahydroindolizin-3(2H)-one], for which the IC50 came to 1000 nM in test [1] and 1960 nM in test [2] (Homo sapiens, HeLa).

`C[C@](O)(c1ccc(-c2nc([C@@H]3CC[C@H]4CCC(=O)N4C3)n3ccnc(N)c23)cc1)c1ccnc(C(F)(F)F)c1` [Example 154, (6R,8aS)-6-[8-amino-1-(4-{(1S)-1-hydroxy-1-[2-(trifluoromethyl)pyridin-4-yl]ethyl}phenyl)imidazo [1,5-a]pyrazin-3-yl]hexahydroindolizin-3(2H)-one]: the IC50 came out at 1000 nM in test [1] and 464 nM in test [2] (Homo sapiens, HeLa).

With `C[C@@](O)(c1ccc(-c2nc([C@@H]3CC[C@H]4CCC(=O)N4C3)n3ccnc(N)c23)cc1)c1ccnc(C(F)(F)F)c1` [Example 155, (6R,8aS)-6-[8-amino-1-(4-{(1R)-1-hydroxy-1-[2-(trifluoromethyl)pyridin-4-yl]ethyl}phenyl)imidazo [1,5-a]pyrazin-3-yl]hexahydroindolizin-3(2H)-one], the IC50 in test [1] stood at 858 nM; in test [2] (Homo sapiens, HeLa) it was 2750 nM.

For the compound `C[C@@](O)(c1ccc(-c2nc([C@H]3CC[C@@H]4COCC(=O)N4C3)n3ccnc(N)c23)cc1)c1cccc(C(F)(F)F)c1` [Example 156, (7S,9aR)-7-(8-amino-1-(4-{(1R)-1-hydroxy-1-[3-(trifluoromethyl)pheny]ethyl}phenyl)imidazo [1,5-a]pyrazin-3-yl]hexahydropyrido[2,1-c][1,4]oxazin-4(3H)-one], the IC50 stood at 72.3 nM in test [1] and 1470 nM in test [2] (Homo sapiens, HeLa).

Take `C[C@@](O)(c1ccc(-c2nc([C@@H]3CC[C@H]4COCC(=O)N4C3)n3ccnc(N)c23)cc1)c1cccc(C(F)(F)F)c1` [Example 157, (7R,9aS)-7-[8-amino-1-(4-{(1R)-1-hydroxy-1-[3-(trifluoromethyl)phenyl]ethyl}phenyl)imidazo [1,5-a]pyrazin-3-yl]hexahydropyrido[2,1-c][1,4)oxazin-4(3H)-one]: the IC50 in test [1] was 1.9 nM; in test [2] (Homo sapiens, HeLa), 2220 nM.

Turning to `C[C@@](O)(c1ccc(-c2nc([C@@H]3CC[C@H]4CCC(=O)N4C3)n3c(F)cnc(N)c23)cc1)c1cccc(C(F)(F)F)c1` [Example 158, (6R,8aS)-6-[8-amino-5-fluoro-1-(4-{(1R)-1-hydroxy-1-[3-(trifluoromethyl)phenyl]ethyl}phenyl)imidazo [1,5-a]pyrazin-3-yl]hexahydroindolizin-3(2H)-one], the IC50 was 4.7 nM in test [1] and 6300 nM in test [2] (Homo sapiens, HeLa).

With `CC(O)(c1ccc(-c2nc([C@@H]3CC[C@H]4CCC(=O)N4C3)n3ccnc(N)c23)cc1)c1cccc(C2CC2(F)F)c1` (stereo partly drawn) [Example 159, (6R,8aS)-6-[8-amino-1-(4-{1-[3-(2,2-difluorocyclopropyl)phenyl]-1-hydroxyethyl}phenyl)imidazo[1,5-a]pyrazin-3-yl]hexahydroindolizin-3(2H)-one], the figures for the IC50 in test [1] and in test [2] were 0.1 nM and 1880 nM, respectively.

`CC(O)(c1ccc(-c2nc([C@@H]3CC[C@H]4CCC(=O)N4C3)n3ccnc(N)c23)cc1)c1cccc(C2CC2(F)F)c1` (stereo partly drawn) [Example 160, (6R,8aS)-6-[8-amino-1-(4-{1-[3-(2,2-difluorocyclopropyl)phenyl]-1-hydroxyethyl}phenyl)imidazo[1,5-a]pyrazin-3-yl]hexahydroindolizin-3(2H)-one]: the figures for the IC50 in test [1] and in test [2] were 0.07 nM and 1840 nM, respectively.

As to `CC1(C)CC(=O)N2C[C@@H](c3nc(-c4ccc([C@@](C)(O)c5cccc(C(F)(F)F)c5)cc4)c4c(N)nccn34)CC[C@@H]21` [Example 161, (6S,8aR)-6-[8-amino-1-(4-{(1R)-1-hydroxy-1-[3-(trifluoromethyl)phenyl]ethyl}phenyl)imidazo [1,5-a]pyrazin-3-yl]-1,1-dimethylhexahydroindolizin-3(2H)-one], the IC50 was determined as 0.27 nM in test [1] and 2140 nM in test [2] (Homo sapiens, HeLa).

`CCOc1cc(C(C)(O)c2cccc(C(F)(F)F)c2)ccc1-c1nc([C@@H]2CC[C@H]3CCC(=O)N3C2)n2ccnc(N)c12` (stereo partly drawn) [Example 162, (6R,8aS)-6-[8-amino-1-(2-ethoxy-4-{1-hydroxy-1-[3-(trifluoromethyl)phenyl]ethyl}phenyl)imidazo [1,5-a]pyrazin-3-yl]hexahydroindolizin-3(2H)-one]: the IC50 came to 0.63 nM in test [1] and 4210 nM in test [2] (Homo sapiens, HeLa).

Take `CC1(C)CC(=O)N2C[C@@H](c3nc(-c4ccc([C@@](C)(O)c5cccc(C(F)(F)F)c5)cc4)c4c(N)nccn34)CC[C@@H]21` [Example 163, (6S,8aR)-6-[8-amino-1-(4-{(1R)-1-hydroxy-1-[3-(trifluoromethyl)phenyl]ethyl}phenyl)imidazo [1,5-a]pyrazin-3-yl]-1,1-dimethylhexahydroindolizin-3(2H)-one]: the results for the IC50 in test [1] and in test [2] were 169 nM and 1560 nM, respectively.

For the compound `CC(O)(c1ccc(-c2nc([C@@H]3CC[C@H]4CCC(=O)N4C3)n3ccnc(N)c23)cc1)c1cccc(C2CC2(F)F)c1` (stereo partly drawn) [Example 164, (6R,8aS)-6-[8-amino-1-(4-{1-[3-(2,2-difluorocyclopropyl)phenyl]-1-hydroxyethyl}phenyl)imidazo[1,5-a]pyrazin-3-yl]hexahydroindolizin-3(2H)-one], the IC50 in test [1] was determined as 48 nM; in test [2], 830 nM.

With `CC(O)(c1ccc(-c2nc([C@@H]3CC[C@H]4CCC(=O)N4C3)n3ccnc(N)c23)cc1)c1cccc(C2CC2(F)F)c1` (stereo partly drawn) [Example 165, (6R,8aS)-6-[8-amino-1-(4-{1-[3-(2,2-difluorocyclopropyl)phenyl]-1-hydroxyethyl}phenyl)imidazo[1,5-a]pyrazin-3-yl]hexahydroindolizin-3(2H)-one], the results for the IC50 in test [1] and in test [2] were 28.9 nM and 1090 nM, respectively.

For `CCOc1cc(C(C)(O)c2cccc(C)c2)ccc1-c1nc([C@@H]2CC[C@H]3CCC(=O)N3C2)n2ccnc(N)c12` (stereo partly drawn) [Example 166, (6R,8aS)-6-(8-amino-1-{2-ethoxy-4-[1-hydroxy-1-(3-methylphenyl)ethyl]phenyl}imidazo[1,5-a]pyrazin-3-yl)hexahydroindolizin-3(2H)-one], the IC50 was found to be 2 nM in test [1] and 10000 nM in test [2].

`CCOc1cc(C(C)(O)c2cccc(C(F)(F)F)c2)ccc1-c1nc([C@@H]2CC[C@H]3CCC(=O)N3C2)n2ccnc(N)c12` (stereo partly drawn) [Example 167, (6R,8aS)-6-[8-amino-1-(2-ethoxy-4-{1-hydroxy-1-[3-(trifluoromethyl)phenyl]ethyl}phenyl)imidazo [1,5-a]pyrazin-3-yl]hexahydroindolizin-3(2H)-one]: the IC50 in test [1] was 20.6 nM; in test [2], 2410 nM.

As to `CCOc1cc(C(C)(O)c2cccc(C)c2)ccc1-c1nc([C@@H]2CC[C@H]3CCC(=O)N3C2)n2ccnc(N)c12` (stereo partly drawn) [Example 168, (6R,8aS)-6-(8-amino-1-{2-ethoxy-4-[1-hydroxy-1-(3-methylphenyl)ethyl]phenyl}imidazo[1,5-a]pyrazin-3-yl)hexahydroindolizin-3(2H)-one], the IC50 in test [1] was 60.3 nM; in test [2] it was 3650 nM.

Take `C[C@@](O)(c1ccc(-c2nc([C@H]3CN4C(=O)CC[C@@H]4CO3)n3ccnc(N)c23)cc1)c1cccc(C(F)(F)F)c1` [Example 169, (3R,8aR)-3-[8-amino-1-(4-{(1R)-1-hydroxy-1-[3-(trifluoromethyl)phenyl]ethyl}phenyl)imidazo[1,5-a]pyrazin-3-yl]hexahydro-6H-pyrrolo[2,1-c][1,4]oxazin-6-one]: the IC50 stood at 7.2 nM in test [1] and 4530 nM in test [2] (Homo sapiens, HeLa).

Turning to `C[C@@](O)(c1ccc(-c2nc([C@@H]3CC[C@H]4N(C3)C(=O)CCC4(F)F)n3ccnc(N)c23)cc1)c1cccc(C(F)(F)F)c1` [Example 170, (7R,9aR)-7-[8-amino-1-(4-{(1R)-1-hydroxy-1-[3-(trifluoromethyl)phenyl]ethyl}phenyl)imidazo [1,5-a]pyrazin-3-yl]-1,1-difluorooctahydro-4H-quinolizin-4-one], the IC50 is 556 nM in test [1] and 7110 nM in test [2] (Homo sapiens, HeLa).

The record behind these values is US10214546B2, “Btk inhibitors” (MERCK SHARP & DOHME CORP., priority 2014, dated 2019).
